SMILES strings stand for the structures.

Experiment [1] deals with ex vivo iLTB4-formation (5-lipoxygenase activity) in whole blood of rats. Kind of experiment: Inhibition of ex vivo iLTB4-formation in rat whole blood after oral administration. Details: species or system male rats (Wistar strain). As to conditions: Rattus norvegicus, 21.5 mg/kg oral, blood taken 1 hour later. The method, then: The bioavailability of the compounds of formula I after oral administration was characterized by means of an ex vivo biochemical assessment method described by Tateson et al. in Brit. Pharmacol., 94, 528 (1988).
Compounds of formula I were orally administered to male rats (Wistar strain). 1 hour later the rats were bled by heart puncture in letal CO2 -narcosis. The 5-lipoxygenase reaction was triggered by the addition of the calcium-ionophor A23187 to an end concentration of […] to aliquots of rat whole blood and subsequent incubation for 30 minutes at 37° C. in a water bath. At the end of the incubation the samples were centrifuged to collect the cell free plasma. The concentration of the immunoreactive LTB4 (iLTB4 ng/ml) in each plasma sample was determined by a LTB4 -radioimmunoassay (^3 H-LTB4 -RIA, Amersham) by means of a LTB4 -standard curve in diluted rat plasma. For calculation of the percent inhibition of ex vivo iLTB4 -formation in whole blood of rats treated with the compounds of formula I rats treated with appropiate vehicle solution were included in all experiments, aliquots of their blood were run in parallel and were processed in the same way as described. The mean iLTB4 -formation per ml plasma of these vehicle treated control rats served as 100 percent value of normal control 5-lipoxygenase activity. The percent inhibition of the ex vivo iLTB4 -formation after oral administration of compounds of formula I was calculated as follows: 100 minus 100 times the quotient of the mean iLTB4 concentration per ml plasma of the rats treated with compounds of formula I […] and the mean iLTB4 concentration per ml plasma of the control rats.

The target of another experiment is T1, cyclooxygenase (Ovis aries, UniProt P05979).
T1 construct: suspension of sheep seminal vesicle microsomes; from tissue; host or cells: sheep seminal vesicle microsomes
T1 sequence (P05979 25-600): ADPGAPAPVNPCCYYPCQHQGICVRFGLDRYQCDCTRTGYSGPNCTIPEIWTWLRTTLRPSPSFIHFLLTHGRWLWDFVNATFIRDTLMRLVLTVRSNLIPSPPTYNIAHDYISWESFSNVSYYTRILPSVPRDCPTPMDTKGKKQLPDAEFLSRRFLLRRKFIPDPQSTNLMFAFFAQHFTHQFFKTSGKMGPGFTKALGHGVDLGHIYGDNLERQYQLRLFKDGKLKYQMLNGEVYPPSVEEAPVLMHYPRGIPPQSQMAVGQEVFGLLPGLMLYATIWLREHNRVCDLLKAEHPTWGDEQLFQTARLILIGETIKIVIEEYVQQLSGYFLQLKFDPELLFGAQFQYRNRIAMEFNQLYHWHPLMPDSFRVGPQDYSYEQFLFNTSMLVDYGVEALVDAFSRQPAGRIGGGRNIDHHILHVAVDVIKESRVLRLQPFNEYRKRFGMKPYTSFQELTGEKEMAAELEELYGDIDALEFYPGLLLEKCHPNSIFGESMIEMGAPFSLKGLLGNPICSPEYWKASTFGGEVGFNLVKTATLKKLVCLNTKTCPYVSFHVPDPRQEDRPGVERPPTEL
The experiment can be described thus: Inhibition of cyclooxygenase in sheep seminal vesicle microsomes ([14C]-arachidonic acid, TLC). It is filed as biochemical. The conditions noted are these: pH 7.0, read-out: IC50 for inhibition of cyclooxygenase (B). The protocol:
The effect of the test compounds on the activity of cyclooxygenase was tested using a suspension of sheep seminal vesicle microsomes in 50 mM potassium phosphate buffer of pH 7.0 which was incubated with the solvent only (as control) or with the test compound and [^14 C]-arachidonic acid. The "IC50 -values (B)" (i.e. the concentration of the test compound which causes an 50%-inhibition of the cyclooxygenase) were determined by thin layer chromatography and by means of a TLC-Linear-Analyzer.

The target of the next experiment is T2, 5-lipoxygenase (Rattus norvegicus, UniProt P12527).
T2 construct: endogenous in cells; host or cells: rat basophilic leukemia cells
T2 sequence (P12527 1-673): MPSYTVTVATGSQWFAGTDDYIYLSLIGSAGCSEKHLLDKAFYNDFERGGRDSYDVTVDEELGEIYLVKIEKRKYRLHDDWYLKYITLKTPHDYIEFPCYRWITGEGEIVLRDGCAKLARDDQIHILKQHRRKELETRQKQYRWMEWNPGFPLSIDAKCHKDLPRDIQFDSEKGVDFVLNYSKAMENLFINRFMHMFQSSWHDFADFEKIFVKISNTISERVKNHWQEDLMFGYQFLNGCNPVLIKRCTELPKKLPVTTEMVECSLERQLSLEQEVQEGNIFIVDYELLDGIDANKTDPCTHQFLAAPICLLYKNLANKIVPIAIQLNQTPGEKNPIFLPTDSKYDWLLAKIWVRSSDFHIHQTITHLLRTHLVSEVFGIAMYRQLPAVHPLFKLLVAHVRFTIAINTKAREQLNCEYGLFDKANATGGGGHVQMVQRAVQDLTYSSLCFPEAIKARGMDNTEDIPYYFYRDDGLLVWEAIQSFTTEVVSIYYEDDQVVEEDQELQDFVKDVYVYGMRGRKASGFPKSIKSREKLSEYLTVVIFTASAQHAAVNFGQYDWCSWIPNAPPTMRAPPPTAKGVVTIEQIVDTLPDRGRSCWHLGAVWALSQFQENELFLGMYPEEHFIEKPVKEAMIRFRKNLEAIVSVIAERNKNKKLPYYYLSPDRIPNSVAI
Kind of experiment: Inhibition of 5-lipoxygenase in rat basophilic leukemia cells ([14C]-arachidonic acid, TLC). It is filed as cell-based. The conditions noted are these: for IC50: rat basophilic leukemia cells, standardized to nordihydroguaiaretic acid; for Quotient (IC50 cyclooxygenase (B) / 5-lipoxygenase (A)): selectivity. The method, then:
To 1 ml each of this suspension there was added indomethacin (10 μM) and calcium chlorid (2 mM) and then the mixture was incubated in presence or absence of a test compound for 3 minutes and thereafter with 20 μM of [^14 C]-arachidonic acid and 20 μM of the calcium ionophore A 23 187 for 10 minutes. The reaction was stopped by adding 20 μl of glacial acetic acid and then the mixture was extracted with ethyl acetate to isolate the metabolites of arachidonic acid formed by the enzymatic action of 5-lipoxygenase. These were separated by thin layer chromatography using a solvent mixture known to be suitable for leukotriene analysis [c.f. Jakschik et al., Biochem. Biophys. Res. Commun. 102, 624 (1981)]. The distribution of the radioactivity to the different metabolites was measured using a TLC Linear Analyzer. By bringing into relationship the percentages of the amount of the products formed under the action of 5-lipoxygenase (5-HETE, isomers of LTB4) in the controls (tests performed in absence of test compounds) and in the presence of test compounds of formula I in different concentrations the "IC50 -value" (i.e. the concentration of the test compound which causes an 50%-inhibition of the 5-lipoxygenase) is determined. For standardization these values then were brought into relationship to the IC50 -values determined in the same manner for the standard compound nordihydroguaiaretic acid.

For the compound `CC(=O)N(O)C(C)c1ccc(C#Cc2ccccc2)cc1` (stereo not shown) [Example 2a, N-{1-[4-(Phenylethynyl)-phenyl]-ethyl}-acetohydroxamic acid], the inhibition in vivo (in general, how much of the control response was suppressed) at 21.5 mg/kg in experiment [1] was found to be 76%.
With `COc1ccc(C#Cc2cccc(C(C)N(O)C(C)=O)c2)cc1OC` (stereo not shown) [Example 5b, N-{1-[3-(3,4-Dimethoxy-phenylethynyl)-phenyl]-ethyl}-acetohydroxamic acid], at cyclooxygenase, the IC50 (commonly the concentration that inhibits the measured activity by half) is more than 500000 nM. Also, on 5-lipoxygenase, the IC50 is 280 nM and the “Quotient (IC50 cyclooxygenase (B) / 5-lipoxygenase (A))” value is more than 1786.
For `COc1cccc(C#Cc2cccc(C(C)N(O)C(C)=O)c2)c1` (stereo not shown) [Example 5c, N-{1-[3-(3-Methoxy-phenylethynyl)-phenyl]-ethyl}-acetohydroxamic acid], the IC50 on cyclooxygenase was more than 500000 nM; on 5-lipoxygenase it was 580 nM. The “Quotient (IC50 cyclooxygenase (B) / 5-lipoxygenase (A))” value on 5-lipoxygenase is more than 862. In addition, in experiment [1], the inhibition in vivo at 21.5 mg/kg stood at 88%.
For `CC(=O)N(O)Cc1cccc(C#Cc2ccc(C(C)C)cc2)c1` [Example 5e, N-[3-(4-Isopropyl-phenylethynyl)-benzyl]-acetohydroxamic acid], testing at 21.5 mg/kg in experiment [1] gave an inhibition in vivo of 82%.
Turning to `NC(=O)N(O)Cc1cccc(C#Cc2cccc3ccccc23)c1` [Example 7, N-Hydroxy-N-[-3-(naphth-1-yl-ethynyl)-benzyl]-urea], at cyclooxygenase, the IC50 was more than 500000 nM. For the same compound, at 5-lipoxygenase, it took 650 nM to reach half-maximal inhibition (IC50) and the “Quotient (IC50 cyclooxygenase (B) / 5-lipoxygenase (A))” value is reported as more than 769. Moreover, in experiment [1], testing at 21.5 mg/kg gave an inhibition in vivo of 90%.
For `CC(c1cccc(C#Cc2ccc(F)cc2)c1)N(O)C(N)=O` (stereo not shown) [Example 8b, N-Hydroxy-N-{1-[3-(4-fluorophenylethynyl)-phenyl]-ethyl}-urea], in experiment [1], testing at 21.5 mg/kg gave an inhibition in vivo of 99%.
Consider `COc1ccc(C#Cc2cccc(C(C)N(O)C(N)=O)c2)cc1OC` (stereo not shown) [Example 10b, N-Hydroxy-N-{1-[3-(3,4-dimethoxy-phenylethynyl)-phenyl]-ethyl}-urea], for which, at cyclooxygenase, the IC50 is more than 500000 nM. On 5-lipoxygenase, the IC50 amounted to 690 nM and the “Quotient (IC50 cyclooxygenase (B) / 5-lipoxygenase (A))” value is given as more than 725. The same compound registered an inhibition in vivo at 21.5 mg/kg in experiment [1] of 86%.
With `COc1cccc(C#Cc2cccc(C(C)N(O)C(N)=O)c2)c1` (stereo not shown) [Example 10c, N-Hydroxy-N-{1-[3-(3-methoxy-phenylethynyl)-phenyl]-ethyl}-urea], the IC50 is more than 500000 nM at cyclooxygenase and 270 nM on 5-lipoxygenase. In addition, on 5-lipoxygenase, the “Quotient (IC50 cyclooxygenase (B) / 5-lipoxygenase (A))” value is recorded as more than 1852.
Take `CC(c1cccc(C#Cc2ccc(Cl)cc2)c1)N(O)C(N)=O` (stereo not shown) [Example 10d, N-Hydroxy-N-{1-[3-(4-chloro-phenylethynyl)-phenyl]-ethyl}-urea]: the IC50 on cyclooxygenase came to 500000 nM. At 5-lipoxygenase, the IC50 was 550 nM and the “Quotient (IC50 cyclooxygenase (B) / 5-lipoxygenase (A))” value was 909. In addition, the inhibition in vivo at 21.5 mg/kg in experiment [1] was found to be 99%.
With `CC(C)c1ccc(C#Cc2cccc(CN(O)C(N)=O)c2)cc1` [Example 10e], the inhibition in vivo at 21.5 mg/kg in experiment [1] came out at 81%.
With `COc1ccccc1C#Cc1cccc(C(C)N(O)C(N)=O)c1` (stereo not shown) [Example 10g, N-Hydroxy-N-{1-[3-(2-methoxy-phenylethynyl)-phenyl]-ethyl}-urea], the results for the IC50 on cyclooxygenase and at 5-lipoxygenase were 270000 nM and 320 nM, respectively. At 5-lipoxygenase, the “Quotient (IC50 cyclooxygenase (B) / 5-lipoxygenase (A))” value worked out at 844.
As for `NC(=O)N(O)Cc1cccc(C#Cc2ccc(Cl)cc2)c1` [Example 10m, N-Hydroxy-N-[3-(4-chlorophenylethynyl)-benzyl]-urea], the IC50 on cyclooxygenase is more than 500000 nM. Further, on 5-lipoxygenase, it took 260 nM to reach half-maximal inhibition (IC50) and the “Quotient (IC50 cyclooxygenase (B) / 5-lipoxygenase (A))” value is more than 1923.
The like results for `COc1ccc(C#Cc2cccc(CN(O)C(N)=O)c2)cc1` [Example 10n, N-Hydroxy-N-[3-(4-methoxyphenylethynyl)-benzyl]-urea] were, in that order, more than 500000 nM, 180 nM and more than 2778.
As for `CC(c1cccc(C#Cc2ccc(C(F)(F)F)cc2)c1)N(O)C(N)=O` (stereo not shown) [Example 11, N-Hydroxy-N-{1-[3-(4-trifluoromethyl-phenylethynyl)-phenyl]-ethyl}-urea], the IC50 at cyclooxygenase is more than 500000 nM. For the same compound, on 5-lipoxygenase, it took 670 nM to reach half-maximal inhibition (IC50) and the “Quotient (IC50 cyclooxygenase (B) / 5-lipoxygenase (A))” value is more than 746. The inhibition in vivo at 21.5 mg/kg in experiment [1] is 76%.
On to `CC(=O)N(O)C(C)c1cccc(C#Cc2ccc(Cl)cc2)c1` (stereo not shown) [Example 12, N-{1-[3-(4-Chloro-phenylethynyl)-phenyl]-ethyl}-acetohydroxamic acid], for which testing at 21.5 mg/kg in experiment [1] gave an inhibition in vivo of 87%.
On to `CC(c1ccc(C#Cc2cccs2)cc1)N(O)C(N)=O` (stereo not shown) [Example 15, N-Hydroxy-N-{1-[4-(thien-2-yl-ethynyl)-phenyl]-ethyl}-urea], for which the IC50 at cyclooxygenase is 500000 nM; against 5-lipoxygenase it was 410 nM. The “Quotient (IC50 cyclooxygenase (B) / 5-lipoxygenase (A))” value at 5-lipoxygenase was determined as 1220. In addition, in experiment [1], at 21.5 mg/kg the inhibition in vivo was 77%.
The like results for `CC(c1ccc(C#Cc2ccsc2)cc1)N(O)C(N)=O` (stereo not shown) [Example 16b, N-Hydroxy-N-{1-[4-(thien-3-yl-ethynyl)-phenyl]-ethyl}-urea] were, in that order, 500000 nM, 290 nM, 1724 and 91%.
Regarding `NC(=O)N(O)Cc1ccc(C#Cc2cccs2)cc1` [Example 16d, N-Hydroxy-N-[4-(thien-2-yl-ethynyl)-benzyl]-urea], the IC50 at cyclooxygenase is 500000 nM. On 5-lipoxygenase, the IC50 turned out to be 370 nM and the “Quotient (IC50 cyclooxygenase (B) / 5-lipoxygenase (A))” value was found to be 1351.
Regarding `NC(=O)N(O)Cc1ccc(C#Cc2ccsc2)cc1` [Example 16f, N-Hydroxy-N-[4-(thien-3-yl-ethynyl)-benzyl]-urea], the IC50 on cyclooxygenase is 500000 nM. At 5-lipoxygenase, half-maximal inhibition (IC50) required 410 nM and the “Quotient (IC50 cyclooxygenase (B) / 5-lipoxygenase (A))” value is 1220. 21.5 mg/kg produced 97% inhibition in vivo in experiment [1].

These data come from US5202349A, “Substituted phenylacetylenes, pharmaceutical compositions containing these compounds and processes for the preparation of these compounds and compositions” (Gruenenthal GmbH, priority 1990, dated 1993).
